Experiment [1] deals with M. luteus ATCC 10240. The experiment is described as follows: MIC by micro broth-dilution method. The format is cell-based, Micrococcus luteus. Conditions: for MIC against M. luteus ATCC 10240: micro broth-dilution, Mueller Hinton Broth, 2 × 10^5 CFU/mL mixed 1:1 with lantibiotic, BSA-treated 96-well plates, overnight 37 °C, lowest concentration with no visible growth, Rosα (variant) with wild-type Rosβ. The procedure: (§1) The minimum inhibitory concentration of wild-type roseocin and its variants was determined with micro broth-dilution method. Sterile 96-well microtiter plates were treated with 200 µL of 1% (w/v) bovine serum albumin (BSA) in 1 × phosphate-buffered saline (PBS) solution at 37 °C for 30 min. After this, wells were washed with 1 × PBS to remove excess BSA (Ellis et al. [2020]). Log phase culture was diluted with Mueller Hinton Broth (MHB) to obtain 2 × 10^5 CFU/mL. The bacterial suspension and the lantibiotic were added to 96-well microplates at a ratio of 1:1. The microplates were incubated overnight at 37 °C. The lowest concentration at which no visible growth was observed, was considered MIC.

Experiment [2] relates to MSSA ATCC 25923. Nature of the experiment: MIC by micro broth-dilution method. The format is cell-based, Staphylococcus aureus. As to conditions: for MIC against MSSA ATCC 25923: micro broth-dilution, Mueller Hinton Broth, 2 × 10^5 CFU/mL mixed 1:1 with lantibiotic, BSA-treated 96-well plates, overnight 37 °C, lowest concentration with no visible growth, Rosα (variant) with wild-type Rosβ. The procedure:
as §1

Experiment [3] has as its system M. luteus ATCC 10240 and methicillin-sensitive Staphylococcus aureus (MSSA) ATCC 25923. The experiment is described as follows: MIC comparison of variants with wild-type roseocin, both strains. Conditions: M. luteus ATCC 10240 and MSSA ATCC 25923, in combination with wild-type Rosβ. The format is cell-based, Micrococcus luteus; Staphylococcus aureus. The procedure:
as §1

The subject of experiment [4] is M. luteus ATCC 10240. Nature of the experiment: Agar diffusion assay in synergism with Rosβ. Conditions: nutrient agar, leader removed with proteinase K, 4 μg, 2 μg and 1 μg with equal amount of Rosβ. The format is cell-based, Micrococcus luteus. The procedure: Overnight 10 mL culture of Micrococcus luteus (ATCC 10240), grown in nutrient broth, was diluted to 0.1 OD600 in the fresh 5 mL nutrient broth. The 1 μL/mL of the culture was used for the inoculation in nutrient agar before plating. The culture was added in bearable to touch media. The nutrient agar culture plates were used for checking the activity of Rosα variant peptides and wild type as a positive control, in synergism with Rosβ in a 1:1 ratio.
Alpha variant precursor peptides were cleaved with proteinase K to obtain their bioactive form, as described earlier (Singh et al. 2020) and were spotted with Rosβ in nutrient agar culture plate, in a dose-dependent manner i.e 1 µg, 2 µg, 4 µg (each).

The mark [5] stands for this setting: compared with wild-type Rosα, in combination with wild-type Rosβ.

These results are taken from PMC10027976, “Phylogeny-guided genome mining of roseocin family lantibiotics to generate improved variants of roseocin” (AMB Express, 2023).

Where no end group is shown, it is not given here.

Consider “GAGSGVLGTWGCCSCLPWYSGWTVCGLACNPGKPCKN (also: bicyclic or more (positions not given here)) [Roseocin L8W, Rosα variant L8W, modified by RosM, tested in combination with wild-type Rosβ]”, for which, in experiment [1] (setting [5]), the “Fold change of MIC against M. luteus ATCC 10240 relative to wild-type” value is given as “two-fold lower MIC”. In addition, the “MIC against M. luteus ATCC 10240” value in experiment [1] was determined as 0.25 µM. In experiment [2], the “MIC against MSSA ATCC 25923” value is 2 µM. For the same substance, the “Change of MIC / inhibitory activity relative to wild-type roseocin (in words)” value is on record as “improvement in the MIC” in experiment [3] and “significantly improved inhibitory activity” in experiment [3] (listed as RosαL8W).

Take “INGAGSGVLGTLGCCSCLPWYSGWTVCGLACNPGKPCKN (also: bicyclic or more (positions not given here)) [Roseocin (wild-type)]”: in experiment [1], the “MIC against M. luteus ATCC 10240” value is 0.5 µM. In addition, in experiment [2], the “MIC against MSSA ATCC 25923” value was 2 µM.

On to “NGAGSGVLGTFGCCSCLPWYSGWTVCGLACNPGKPCKN (also: bicyclic or more (positions not given here)) [Roseocin L8F, Rosα variant L8F, modified by RosM, tested in combination with wild-type Rosβ]”, for which, in experiment [1], the “MIC against M. luteus ATCC 10240” value is 0.5 µM. Also, in experiment [2] (setting [5]), the “Fold change of MIC against MSSA ATCC 25923 relative to wild-type” value was “four-fold lower MIC”. For the same substance, the “MIC against MSSA ATCC 25923” value in experiment [2] is 0.5 µM. For the same substance, the “Zone of inhibition compared to wild type Rosα” value in experiment [4] is “improved significantly”. Moreover, the “Change of MIC / inhibitory activity relative to wild-type roseocin (in words)” value is recorded as “improvement in the MIC” in experiment [3] and “significantly improved inhibitory activity” in experiment [3] (listed as RosαL8F).

Regarding “NGAGSGVLGTLGCCSCLPWYSGWTQCGLACNPGKPCKN (also: bicyclic or more (positions not given here)) [Roseocin V22Q, Rosα variant V22Q, modified by RosM, tested in combination with wild-type Rosβ]”, in experiment [1], the “MIC against M. luteus ATCC 10240” value was over 8 µM. For the same substance, the “MIC against MSSA ATCC 25923” value in experiment [2] was over 16 µM. For the same substance, the “Change of MIC / inhibitory activity relative to wild-type roseocin (in words)” value in experiment [3] is on record as “loss of potency”.

For the substance “NGAGSGVLGTLGCCWCLPWYSGWTVCGLACNPGKPCKN (also: bicyclic or more (positions not given here)) [Roseocin S12W, Rosα variant S12W, modified by RosM, tested in combination with wild-type Rosβ]”, the “MIC against M. luteus ATCC 10240” value in experiment [1] amounted to 0.5 µM. In experiment [2], the “MIC against MSSA ATCC 25923” value is reported as over 16 µM. The “Change of MIC / inhibitory activity relative to wild-type roseocin (in words)” value in experiment [3] is reported as “no improvement”.

Take Nisin [reference compound]: the “MIC against M. luteus ATCC 10240” value in experiment [1] was determined as 0.0625 µM. In addition, the “MIC against MSSA ATCC 25923” value in experiment [2] was 2 µM.
